# Assays:
# Settings in all cases: Compound concentration 1.0 uM
# [1] = target: ALK tyrosine kinase receptor (Homo sapiens) (UniProt Q9UM73); assay: activity of ALK(h) at 1.0 µM in the Eurofins Kinase panel
# [2] = target: Cyclin-dependent kinase 1/cyclin B (Homo sapiens) (UniProt P06493+P14635+Q8WWL7+O95067); assay: activity of CDK1/cyclinB(h) at 1.0 µM in the Eurofins Kinase panel; format: protein-complex assay
# [3] = target: CDK18/Cyclin Y (Homo sapiens) (UniProt Q07002+Q8ND76); assay: activity of CDK18/cyclinY(h) at 1.0 µM in the Eurofins Kinase panel; format: protein-complex assay
# [4] = target: Cyclin-dependent kinase 2/cyclin E (Homo sapiens) (UniProt P24864+P24941+O96020); assay: activity of CDK2/cyclinE(h) at 1.0 µM in the Eurofins Kinase panel; format: protein-complex assay
# [5] = target: Death-associated protein kinase 1 (Homo sapiens) (UniProt P53355); assay: activity of DAPK1(h) at 1.0 µM in the Eurofins Kinase panel
# [6] = target: Myotonin-protein kinase (Homo sapiens) (UniProt Q09013); assay: activity of DMPK(h) at 1.0 µM in the Eurofins Kinase panel
# Chain of Myotonin-protein kinase (Homo sapiens) (Q09013 whole entry): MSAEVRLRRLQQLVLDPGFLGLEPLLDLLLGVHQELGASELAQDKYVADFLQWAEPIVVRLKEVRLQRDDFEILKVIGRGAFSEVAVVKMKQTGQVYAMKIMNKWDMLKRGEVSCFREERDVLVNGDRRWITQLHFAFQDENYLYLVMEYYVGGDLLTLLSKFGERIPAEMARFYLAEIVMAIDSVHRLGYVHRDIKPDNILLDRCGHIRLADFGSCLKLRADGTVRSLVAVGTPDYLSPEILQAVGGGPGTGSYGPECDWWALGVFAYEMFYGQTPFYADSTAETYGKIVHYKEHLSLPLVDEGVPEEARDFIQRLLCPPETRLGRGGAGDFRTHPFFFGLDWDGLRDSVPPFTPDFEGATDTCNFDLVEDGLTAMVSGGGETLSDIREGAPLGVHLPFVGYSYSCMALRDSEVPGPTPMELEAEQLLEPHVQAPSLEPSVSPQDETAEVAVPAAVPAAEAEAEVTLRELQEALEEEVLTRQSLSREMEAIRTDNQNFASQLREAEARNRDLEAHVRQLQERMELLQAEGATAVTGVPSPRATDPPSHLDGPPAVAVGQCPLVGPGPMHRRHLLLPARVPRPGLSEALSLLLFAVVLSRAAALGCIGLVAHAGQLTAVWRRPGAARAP
# [7] = target: Ephrin type-A receptor 1 (Homo sapiens) (UniProt P21709); assay: activity of EphA1(h) at 1.0 µM in the Eurofins Kinase panel
# [8] = target: Ephrin type-A receptor 4 (Homo sapiens) (UniProt P54764); assay: activity of EphA4(h) at 1.0 µM in the Eurofins Kinase panel
# [9] = target: Ephrin type-A receptor 5 (Homo sapiens) (UniProt P54756); assay: activity of EphA5(h) at 1.0 µM in the Eurofins Kinase panel
# [10] = target: Homeodomain-interacting protein kinase 3 (Homo sapiens) (UniProt Q9H422); assay: activity of HIPK3(h) at 1.0 µM in the Eurofins Kinase panel
# [11] = target: Interleukin-1 receptor-associated kinase 1 (Homo sapiens) (UniProt P51617); assay: activity of IRAK1(h) at 1.0 µM in the Eurofins Kinase panel
# [12] = target: Mitogen-activated protein kinase 10 (Homo sapiens) (UniProt P53779); assay: activity of JNK3(h) at 1.0 µM in the Eurofins Kinase panel
# [13] = target: Tyrosine-protein kinase Lck (Homo sapiens) (UniProt P06239); assay: activity of Lck(h) at 1.0 µM in the Eurofins Kinase panel
# [14] = target: Mitogen-activated protein kinase kinase kinase kinase 5 (Homo sapiens) (UniProt Q9Y4K4); assay: activity of MAP4K5(h) at 1.0 µM in the Eurofins Kinase panel
# Chain of Mitogen-activated protein kinase kinase kinase kinase 5 (Homo sapiens) (Q9Y4K4 whole entry, looked up): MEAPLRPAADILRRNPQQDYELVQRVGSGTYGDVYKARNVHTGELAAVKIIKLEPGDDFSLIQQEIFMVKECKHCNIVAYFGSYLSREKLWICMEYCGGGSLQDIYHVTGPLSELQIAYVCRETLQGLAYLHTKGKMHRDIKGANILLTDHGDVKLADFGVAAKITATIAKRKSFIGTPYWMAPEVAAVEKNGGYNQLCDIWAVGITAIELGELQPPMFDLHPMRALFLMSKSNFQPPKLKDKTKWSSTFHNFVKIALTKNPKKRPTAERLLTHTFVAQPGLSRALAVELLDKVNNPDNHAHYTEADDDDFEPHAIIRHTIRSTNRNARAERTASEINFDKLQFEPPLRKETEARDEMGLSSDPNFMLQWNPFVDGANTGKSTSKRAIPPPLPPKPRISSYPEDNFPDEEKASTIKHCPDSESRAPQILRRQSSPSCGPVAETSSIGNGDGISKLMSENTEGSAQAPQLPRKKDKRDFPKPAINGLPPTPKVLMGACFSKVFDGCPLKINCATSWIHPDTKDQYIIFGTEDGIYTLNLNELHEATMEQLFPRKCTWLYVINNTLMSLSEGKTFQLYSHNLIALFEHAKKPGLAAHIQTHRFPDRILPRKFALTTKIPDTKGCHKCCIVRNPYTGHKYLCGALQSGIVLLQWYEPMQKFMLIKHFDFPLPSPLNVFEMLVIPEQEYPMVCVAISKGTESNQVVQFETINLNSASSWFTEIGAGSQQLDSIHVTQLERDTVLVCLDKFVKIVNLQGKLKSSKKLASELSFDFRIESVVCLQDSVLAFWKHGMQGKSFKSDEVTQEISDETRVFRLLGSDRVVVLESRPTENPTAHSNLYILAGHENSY
# [15] = target: Mitogen-activated protein kinase 1 (Homo sapiens) (UniProt P28482); assay: activity of MAPK1(h) at 1.0 µM in the Eurofins Kinase panel
# Chain of Mitogen-activated protein kinase 1 (Homo sapiens) (P28482 whole entry): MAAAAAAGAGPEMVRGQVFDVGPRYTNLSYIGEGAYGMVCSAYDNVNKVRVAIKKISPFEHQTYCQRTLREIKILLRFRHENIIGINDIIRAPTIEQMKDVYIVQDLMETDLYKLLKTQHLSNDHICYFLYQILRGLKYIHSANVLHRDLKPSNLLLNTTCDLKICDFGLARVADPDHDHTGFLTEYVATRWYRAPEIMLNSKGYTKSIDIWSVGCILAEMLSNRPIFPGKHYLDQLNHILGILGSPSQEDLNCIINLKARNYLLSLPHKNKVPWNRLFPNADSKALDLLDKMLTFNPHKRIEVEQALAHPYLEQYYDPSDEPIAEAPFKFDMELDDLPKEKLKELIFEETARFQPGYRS
# [16] = target: MAP/microtubule affinity-regulating kinase 4 (Homo sapiens) (UniProt Q96L34); assay: activity of MARK4(h) at 1.0 µM in the Eurofins Kinase panel
# [17] = target: Hepatocyte growth factor receptor (Homo sapiens) (UniProt P08581); assay: activity of Met(h) at 1.0 µM in the Eurofins Kinase panel
# [18] = target: Serine/threonine-protein kinase 26 (Homo sapiens) (UniProt Q9P289); assay: activity of MST4(h) at 1.0 µM in the Eurofins Kinase panel
# [19] = target: Serine/threonine-protein kinase Nek6 (Homo sapiens) (UniProt Q9HC98); assay: activity of NEK6(h) at 1.0 µM in the Eurofins Kinase panel
# [20] = target: [Pyruvate dehydrogenase (acetyl-transferring)] kinase isozyme 4, mitochondrial (Homo sapiens) (UniProt Q16654); assay: activity of PDHK4(h) at 1.0 µM in the Eurofins Kinase panel
# [21] = target: PI3-kinase p110-alpha/p85-alpha (Homo sapiens) (UniProt P27986+P42336); assay: activity of PI3 Kinase (p110alpha/p85alpha)(h) at 1.0 µM in the Eurofins Kinase panel; format: protein-complex assay
# [22] = target: Phosphatidylinositol 4-phosphate 5-kinase type-1 gamma (Homo sapiens) (UniProt O60331); assay: activity of PIP5K1gamma(h) at 1.0 µM in the Eurofins Kinase panel
# [23] = target: Protein kinase C eta type (Homo sapiens) (UniProt P24723); assay: activity of PKCeta(h) at 1.0 µM in the Eurofins Kinase panel
# [24] = target: Serine/threonine-protein kinase PLK4 (Homo sapiens) (UniProt O00444); assay: activity of Plk4(h) at 1.0 µM in the Eurofins Kinase panel
# [25] = target: MAP kinase-activated protein kinase 5 (Homo sapiens) (UniProt Q8IW41); assay: activity of PRAK(h) at 1.0 µM in the Eurofins Kinase panel
# Chain of MAP kinase-activated protein kinase 5 (Homo sapiens) (Q8IW41 whole entry): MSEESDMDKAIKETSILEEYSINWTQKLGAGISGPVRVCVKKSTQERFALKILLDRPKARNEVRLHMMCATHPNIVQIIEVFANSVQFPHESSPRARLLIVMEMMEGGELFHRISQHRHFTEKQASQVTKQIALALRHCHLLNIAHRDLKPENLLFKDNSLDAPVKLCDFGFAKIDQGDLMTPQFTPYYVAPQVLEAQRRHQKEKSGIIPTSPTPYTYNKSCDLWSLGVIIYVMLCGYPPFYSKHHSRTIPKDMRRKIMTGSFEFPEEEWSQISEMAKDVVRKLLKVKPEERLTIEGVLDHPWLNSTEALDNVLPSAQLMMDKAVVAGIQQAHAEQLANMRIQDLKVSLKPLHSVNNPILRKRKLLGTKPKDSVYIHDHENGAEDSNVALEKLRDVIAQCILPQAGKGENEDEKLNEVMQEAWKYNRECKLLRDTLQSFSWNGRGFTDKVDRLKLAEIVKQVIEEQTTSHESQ
# [26] = target: Serine/threonine-protein kinase N1 (Homo sapiens) (UniProt Q16512); assay: activity of PRK1(h) at 1.0 µM in the Eurofins Kinase panel
# [27] = target: Proto-oncogene tyrosine-protein kinase receptor Ret (Homo sapiens) (UniProt P07949); assay: activity of Ret(h) at 1.0 µM in the Eurofins Kinase panel
# [28] = target: Mitogen-activated protein kinase 12 (Homo sapiens) (UniProt P53778); assay: activity of SAPK3(h) at 1.0 µM in the Eurofins Kinase panel
# [29] = target: Serine/threonine-protein kinase SIK3 (Homo sapiens) (UniProt Q9Y2K2); assay: activity of SIK3(h) at 1.0 µM in the Eurofins Kinase panel
# [30] = target: Tyrosine-protein kinase Srms (Homo sapiens) (UniProt Q9H3Y6); assay: activity of SRMS(h) at 1.0 µM in the Eurofins Kinase panel
# [31] = target: Serine/threonine-protein kinase 32B (Homo sapiens) (UniProt Q9NY57); assay: activity of STK32B(h) at 1.0 µM in the Eurofins Kinase panel
# Chain of Serine/threonine-protein kinase 32B (Homo sapiens) (Q9NY57 whole entry): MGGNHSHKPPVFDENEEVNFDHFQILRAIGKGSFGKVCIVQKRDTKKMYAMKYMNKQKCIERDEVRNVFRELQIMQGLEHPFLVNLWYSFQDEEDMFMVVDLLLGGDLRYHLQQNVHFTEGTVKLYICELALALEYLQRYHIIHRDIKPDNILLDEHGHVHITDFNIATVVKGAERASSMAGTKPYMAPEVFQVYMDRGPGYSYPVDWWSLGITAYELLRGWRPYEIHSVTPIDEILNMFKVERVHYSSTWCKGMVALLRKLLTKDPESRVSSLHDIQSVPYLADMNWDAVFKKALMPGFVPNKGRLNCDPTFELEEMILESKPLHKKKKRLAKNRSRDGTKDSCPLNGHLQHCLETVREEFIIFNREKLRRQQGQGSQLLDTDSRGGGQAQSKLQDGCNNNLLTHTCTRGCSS
# [32] = target: Transcription initiation factor TFIID subunit 1-like (Homo sapiens) (UniProt Q8IZX4); assay: activity of TAF1L(h) at 1.0 µM in the Eurofins Kinase panel
# [33] = target: Serine/threonine-protein kinase TBK1 (Homo sapiens) (UniProt Q9UHD2); assay: activity of TBK1(h) at 1.0 µM in the Eurofins Kinase panel
# [34] = target: TRAF2 and NCK-interacting protein kinase (Homo sapiens) (UniProt Q9UKE5); assay: activity of TNIK(h) at 1.0 µM in the Eurofins Kinase panel
# Chain of TRAF2 and NCK-interacting protein kinase (Homo sapiens) (Q9UKE5 whole entry, looked up): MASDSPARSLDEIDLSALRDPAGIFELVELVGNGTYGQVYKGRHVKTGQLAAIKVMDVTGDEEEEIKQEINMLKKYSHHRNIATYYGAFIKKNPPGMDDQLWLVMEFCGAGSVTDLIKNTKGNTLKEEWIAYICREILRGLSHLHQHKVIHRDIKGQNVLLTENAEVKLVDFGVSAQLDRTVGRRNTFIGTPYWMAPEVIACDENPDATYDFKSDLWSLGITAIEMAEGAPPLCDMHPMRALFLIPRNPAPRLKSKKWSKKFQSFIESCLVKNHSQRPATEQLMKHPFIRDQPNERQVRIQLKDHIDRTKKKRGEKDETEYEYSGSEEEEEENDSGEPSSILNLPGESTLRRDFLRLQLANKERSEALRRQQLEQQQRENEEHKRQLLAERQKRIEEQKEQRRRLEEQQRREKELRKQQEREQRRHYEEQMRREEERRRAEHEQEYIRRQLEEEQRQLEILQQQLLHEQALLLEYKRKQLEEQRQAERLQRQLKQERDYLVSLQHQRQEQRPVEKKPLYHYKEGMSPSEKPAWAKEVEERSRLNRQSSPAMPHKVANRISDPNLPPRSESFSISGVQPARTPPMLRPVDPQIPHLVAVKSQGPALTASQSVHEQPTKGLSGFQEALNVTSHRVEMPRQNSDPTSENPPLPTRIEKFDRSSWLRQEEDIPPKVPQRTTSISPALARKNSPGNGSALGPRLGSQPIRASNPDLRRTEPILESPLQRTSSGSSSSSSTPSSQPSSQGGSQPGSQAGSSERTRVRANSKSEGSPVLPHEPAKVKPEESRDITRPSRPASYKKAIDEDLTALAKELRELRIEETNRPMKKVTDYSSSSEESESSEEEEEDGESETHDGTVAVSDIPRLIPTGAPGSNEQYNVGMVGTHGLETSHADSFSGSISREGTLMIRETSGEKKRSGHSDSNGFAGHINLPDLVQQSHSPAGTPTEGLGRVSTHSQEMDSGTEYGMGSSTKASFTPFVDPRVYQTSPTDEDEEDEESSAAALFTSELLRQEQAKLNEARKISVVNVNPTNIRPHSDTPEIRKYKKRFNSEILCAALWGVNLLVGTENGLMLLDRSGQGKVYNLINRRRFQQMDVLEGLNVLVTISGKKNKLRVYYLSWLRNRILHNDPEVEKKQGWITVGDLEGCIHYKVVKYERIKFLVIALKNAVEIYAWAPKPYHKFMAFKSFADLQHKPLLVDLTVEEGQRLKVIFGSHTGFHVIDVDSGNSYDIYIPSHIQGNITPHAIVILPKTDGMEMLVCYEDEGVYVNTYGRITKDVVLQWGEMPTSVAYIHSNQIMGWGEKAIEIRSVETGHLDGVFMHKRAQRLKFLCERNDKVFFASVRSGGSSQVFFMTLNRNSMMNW
# [35] = target: Tau-tubulin kinase 1 (Homo sapiens) (UniProt Q5TCY1); assay: activity of TTBK1(h) at 1.0 µM in the Eurofins Kinase panel
# [36] = target: Serine/threonine-protein kinase VRK2 (Homo sapiens) (UniProt Q86Y07); assay: activity of VRK2(h) at 1.0 µM in the Eurofins Kinase panel
# [37] = target: Mitogen-activated protein kinase kinase kinase 20 (Homo sapiens) (UniProt Q9NYL2); assay: activity of ZAK(h) at 1.0 µM in the Eurofins Kinase panel
# Chain of Mitogen-activated protein kinase kinase kinase 20 (Homo sapiens) (Q9NYL2 2-800 limits assumed): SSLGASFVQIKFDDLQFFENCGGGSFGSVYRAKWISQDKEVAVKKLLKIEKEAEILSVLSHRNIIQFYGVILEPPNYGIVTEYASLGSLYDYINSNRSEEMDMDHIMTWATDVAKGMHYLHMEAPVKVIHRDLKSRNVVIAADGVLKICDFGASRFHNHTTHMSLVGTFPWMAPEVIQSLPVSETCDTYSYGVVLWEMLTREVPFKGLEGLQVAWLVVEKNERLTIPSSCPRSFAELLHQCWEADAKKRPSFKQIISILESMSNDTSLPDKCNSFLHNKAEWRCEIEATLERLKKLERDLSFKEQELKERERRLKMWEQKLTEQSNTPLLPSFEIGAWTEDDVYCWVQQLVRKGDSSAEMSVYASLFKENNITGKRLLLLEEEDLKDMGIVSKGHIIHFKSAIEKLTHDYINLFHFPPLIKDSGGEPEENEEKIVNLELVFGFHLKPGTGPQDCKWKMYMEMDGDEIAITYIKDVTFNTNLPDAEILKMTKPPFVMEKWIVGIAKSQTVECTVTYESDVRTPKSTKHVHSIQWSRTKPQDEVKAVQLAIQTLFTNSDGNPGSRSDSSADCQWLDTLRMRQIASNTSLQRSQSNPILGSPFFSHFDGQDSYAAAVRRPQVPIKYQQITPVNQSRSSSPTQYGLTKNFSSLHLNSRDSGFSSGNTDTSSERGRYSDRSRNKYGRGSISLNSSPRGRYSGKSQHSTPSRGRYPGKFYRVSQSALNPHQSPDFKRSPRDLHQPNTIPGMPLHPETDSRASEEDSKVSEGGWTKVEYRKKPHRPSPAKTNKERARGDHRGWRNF
# [38] = target: Phosphorylase b kinase gamma catalytic chain, testis/liver isoform (Homo sapiens) (UniProt P15735); assay: activity of PhKgamma2(h) at 1.0 µM in the Eurofins Kinase panel
structure (smiles),measurement,setting,value
Cc1cc2c(-c3ccc(NC(=O)[C@H](N)CC(C)(C)C)cc3C)ccnc2[nH]1,activity,[1],77%
same,activity,[2],94%
same,activity,[3],94%
same,activity,[4],92%
same,activity,[5],82%
same,activity,[6],93%
same,activity,[7],92%
same,activity,[8],92%
same,activity,[9],89%
same,activity,[10],85%
same,activity,[11],95%
same,activity,[12],88%
same,activity,[13],86%
same,activity,[14],92%
same,activity,[15],95%
same,activity,[16],92%
same,activity,[17],90%
same,activity,[18],106%
same,activity,[19],86%
same,activity,[20],101%
same,activity,[21],96%
same,activity,[22],102%
same,activity,[23],118%
same,activity,[24],92%
same,activity,[25],107%
same,activity,[26],91%
same,activity,[27],97%
same,activity,[28],113%
same,activity,[29],105%
same,activity,[30],86%
same,activity,[31],115%
same,activity,[32],101%
same,activity,[33],100%
same,activity,[34],93%
same,activity,[35],96%
same,activity,[36],100%
same,activity,[37],83%
same,activity,[38],98%
